Measured values reported in patent EP1247803A2, “Indolinone compounds suitable for modulation of protein kinases” (Sugen, Inc., priority 1996, dated 1998).

How the values were obtained:
EGFR = target: T1, EGFR (Homo sapiens, UniProt P00533); assay: EGFR ELISA assay (in vitro kinase activity, EGFR captured from A431 cell lysate); format: biochemical; set-up: concentration or dose not given beside the values
T1 construct: Add 7 ug A431 cell lysate per well (EGFR source); endogenous in cells; host or cells: A431
T1 sequence (P00533 25-1210): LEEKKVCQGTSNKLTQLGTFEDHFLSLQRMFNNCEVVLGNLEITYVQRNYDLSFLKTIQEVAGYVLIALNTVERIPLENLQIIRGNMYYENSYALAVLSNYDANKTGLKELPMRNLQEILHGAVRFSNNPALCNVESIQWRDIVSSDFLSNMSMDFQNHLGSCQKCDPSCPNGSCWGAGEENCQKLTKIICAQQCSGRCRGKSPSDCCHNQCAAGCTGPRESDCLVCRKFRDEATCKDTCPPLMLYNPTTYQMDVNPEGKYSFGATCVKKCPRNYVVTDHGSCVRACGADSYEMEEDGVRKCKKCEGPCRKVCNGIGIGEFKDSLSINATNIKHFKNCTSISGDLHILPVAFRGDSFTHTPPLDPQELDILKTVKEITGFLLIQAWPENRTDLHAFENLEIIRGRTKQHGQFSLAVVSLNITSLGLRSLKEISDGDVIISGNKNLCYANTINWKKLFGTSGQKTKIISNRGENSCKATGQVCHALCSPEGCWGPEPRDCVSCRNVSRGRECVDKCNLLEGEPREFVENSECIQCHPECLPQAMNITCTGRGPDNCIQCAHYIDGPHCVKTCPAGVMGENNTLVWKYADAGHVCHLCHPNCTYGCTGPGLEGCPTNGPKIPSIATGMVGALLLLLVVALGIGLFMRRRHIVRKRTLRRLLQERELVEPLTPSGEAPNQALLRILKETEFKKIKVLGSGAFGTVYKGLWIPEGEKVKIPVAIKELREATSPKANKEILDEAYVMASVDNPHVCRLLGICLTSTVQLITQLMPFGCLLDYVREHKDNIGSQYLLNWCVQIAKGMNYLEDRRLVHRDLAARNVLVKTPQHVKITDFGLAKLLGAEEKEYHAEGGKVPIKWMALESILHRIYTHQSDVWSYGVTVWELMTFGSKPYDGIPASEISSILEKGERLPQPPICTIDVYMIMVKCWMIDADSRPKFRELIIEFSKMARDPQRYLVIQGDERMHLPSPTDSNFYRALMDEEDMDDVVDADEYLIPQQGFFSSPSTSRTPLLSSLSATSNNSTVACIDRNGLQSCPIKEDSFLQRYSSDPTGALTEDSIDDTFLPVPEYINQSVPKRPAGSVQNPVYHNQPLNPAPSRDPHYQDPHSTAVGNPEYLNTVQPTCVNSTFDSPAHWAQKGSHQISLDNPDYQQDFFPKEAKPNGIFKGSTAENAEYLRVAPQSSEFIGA
Procedure, shortened: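 Receptor autophosphorylation was read by ELISA: anti-phosphotyrosine serum and an HRP-linked secondary with ABTS substrate, absorbance at 410 nm (reference 630 nm). The reaction ran 5 min with 3 µM ATP and 5 mM MnCl2 and was quenched by 20 mM EDTA. Compounds were first incubated 30 min with antibody-captured EGFR from A431 cell lysate.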

MET = MET biochemical kinase assay; set-up: species or system human; concentration or dose not given beside the values
Procedure, shortened: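 MET from cell lysates captured on ELISA plates via rabbit anti-MET cytoplasmic-domain antibody; compounds added and kinase reaction run in ATP and divalent-metal buffer. Receptor phosphotyrosine detected with HRP-conjugated anti-phosphotyrosine antibody and TMB colorimetry.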

PDGF-R = PDGF-R (Homo sapiens, UniProt P09619); assay: PDGF-R ELISA; format: cell-based
Sequence of PDGF-R (P09619 33-1106, species assumed): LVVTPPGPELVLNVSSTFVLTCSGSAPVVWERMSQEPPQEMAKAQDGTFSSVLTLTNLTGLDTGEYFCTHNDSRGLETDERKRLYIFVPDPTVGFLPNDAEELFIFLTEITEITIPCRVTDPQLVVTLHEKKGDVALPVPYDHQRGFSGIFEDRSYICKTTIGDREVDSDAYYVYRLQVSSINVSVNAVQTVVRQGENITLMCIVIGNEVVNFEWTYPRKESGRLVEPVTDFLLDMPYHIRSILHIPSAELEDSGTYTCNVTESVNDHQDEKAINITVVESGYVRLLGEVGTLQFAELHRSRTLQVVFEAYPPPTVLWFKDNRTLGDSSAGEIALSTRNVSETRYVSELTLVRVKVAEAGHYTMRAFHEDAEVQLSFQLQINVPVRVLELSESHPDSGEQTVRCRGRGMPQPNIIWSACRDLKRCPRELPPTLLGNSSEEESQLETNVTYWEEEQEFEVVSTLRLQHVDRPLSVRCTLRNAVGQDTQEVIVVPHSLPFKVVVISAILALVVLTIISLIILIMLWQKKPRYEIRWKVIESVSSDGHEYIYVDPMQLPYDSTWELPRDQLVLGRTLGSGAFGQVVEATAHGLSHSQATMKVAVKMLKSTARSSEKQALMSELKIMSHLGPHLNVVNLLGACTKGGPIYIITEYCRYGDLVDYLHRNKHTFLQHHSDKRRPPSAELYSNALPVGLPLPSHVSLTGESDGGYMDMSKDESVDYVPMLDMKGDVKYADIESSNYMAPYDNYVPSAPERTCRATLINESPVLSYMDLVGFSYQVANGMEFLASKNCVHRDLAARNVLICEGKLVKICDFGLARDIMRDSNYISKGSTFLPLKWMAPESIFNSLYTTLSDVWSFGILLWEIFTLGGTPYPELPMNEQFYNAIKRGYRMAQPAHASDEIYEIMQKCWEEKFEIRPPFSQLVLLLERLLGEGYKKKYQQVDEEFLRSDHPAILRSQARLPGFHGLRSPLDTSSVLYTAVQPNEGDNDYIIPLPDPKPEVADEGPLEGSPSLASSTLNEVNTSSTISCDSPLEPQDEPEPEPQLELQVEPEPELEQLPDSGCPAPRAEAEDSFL
From the text: A PDGF-R ELISA is described in International Patent Publication No. WO 96/40116, published December 19, 1996 by Tang et al.

O=C1Nc2c(Br)cc(Br)cc2C1=Cc1cccs1 [10717/A03]
Biochem EGFR %Inhibition (EGFR): 1.0%
Met Kinase % Inhibition (MET): 54.6%

CCOc1ccccc1C=C1C(=O)Nc2ccc(S(=O)(=O)NC)cc21 [10717/D02]
Biochem EGFR %Inhibition (EGFR): 10.1%
Met Kinase % Inhibition (MET): 28.6%

CNS(=O)(=O)c1ccc2c(c1)C(=Cc1cccs1)C(=O)N2 [10717/D03]
Biochem EGFR %Inhibition (EGFR): -1.4%
Met Kinase % Inhibition (MET): 11.1%

CNS(=O)(=O)c1ccc2c(c1)C(=Cc1cccn1C)C(=O)N2 [10717/D04]
Biochem EGFR %Inhibition (EGFR): 4.9%
Met Kinase % Inhibition (MET): 21.0%

CNS(=O)(=O)c1ccc2c(c1)C(=Cc1ccc(F)cc1)C(=O)N2 [10717/D05]
Biochem EGFR %Inhibition (EGFR): -2.8%
Met Kinase % Inhibition (MET): 23.8%

CNS(=O)(=O)c1ccc2c(c1)C(=Cc1c[nH]c3ccccc13)C(=O)N2 [10717/D06]
Biochem EGFR %Inhibition (EGFR): -23.4%
Met Kinase % Inhibition (MET): 33.8%

CNS(=O)(=O)c1ccc2c(c1)C(=Cc1ccc(C)s1)C(=O)N2 [10717/D07]
Biochem EGFR %Inhibition (EGFR): -4.5%
Met Kinase % Inhibition (MET): 16.8%

CNS(=O)(=O)c1ccc2c(c1)C(=Cc1ccc(Br)cc1)C(=O)N2 [10717/D08]
Biochem EGFR %Inhibition (EGFR): -7.8%
Met Kinase % Inhibition (MET): 16.0%

CNS(=O)(=O)c1ccc2c(c1)C(=Cc1ccc[nH]1)C(=O)N2 [10717/D09]
Biochem EGFR %Inhibition (EGFR): 6.8%
Met Kinase % Inhibition (MET): 29.1%

CNS(=O)(=O)c1ccc2c(c1)C(=Cc1c(O)cccc1OC)C(=O)N2 [10717/D10]
Biochem EGFR %Inhibition (EGFR): 3.5%
Met Kinase % Inhibition (MET): 15.6%

CNS(=O)(=O)c1ccc2c(c1)C(=Cc1cc(Br)c(O)c(C(C)(C)C)c1)C(=O)N2 [10721/D10]
Biochem EGFR %Inhibition (EGFR): 3.3%
Met Kinase % Inhibition (MET): 13.4%

CNS(=O)(=O)c1ccc2c(c1)C(=Cc1cc(C(C)(C)C)c(O)c(C(C)(C)C)c1)C(=O)N2 [10721/D11]
Biochem EGFR %Inhibition (EGFR): 22.2%
Met Kinase % Inhibition (MET): 23.2%

Cn1c(C=C2C(=O)Nc3ccc(S(=O)(=O)Nc4ccc(C(F)(F)F)cc4)cc32)nc2ccccc21 [10721/E02]
Biochem EGFR %Inhibition (EGFR): -9.5%
Met Kinase % Inhibition (MET): 38.8%

Cn1cc(Cl)c(C=C2C(=O)Nc3ccc(S(=O)(=O)Nc4ccc(C(F)(F)F)cc4)cc32)n1 [10721/E03]
Biochem EGFR %Inhibition (EGFR): 25.1%
Met Kinase % Inhibition (MET): 12.3%

Cc1cc(C=C2C(=O)Nc3ccc(S(=O)(=O)Nc4ccc(C(F)(F)F)cc4)cc32)sc1C [10721/E04]
Biochem EGFR %Inhibition (EGFR): 48.5%
Met Kinase % Inhibition (MET): 87.3%

O=C1Nc2ccc(S(=O)(=O)Nc3ccc(C(F)(F)F)cc3)cc2C1=Cc1cc2c([nH]1)CCCC2 [10721/E05]
Biochem EGFR %Inhibition (EGFR): 61.3%
Met Kinase % Inhibition (MET): 69.9%

O=C1Nc2ccc(S(=O)(=O)Nc3ccc(C(F)(F)F)cc3)cc2C1=Cc1cc([N+](=O)[O-])cc(CCl)c1O [10721/E06]
Biochem EGFR %Inhibition (EGFR): 91.5%
Met Kinase % Inhibition (MET): 81.0%

O=C1Nc2ccc(S(=O)(=O)Nc3ccc(C(F)(F)F)cc3)cc2C1=Cc1ccc(Cl)s1 [10721/E07]
Biochem EGFR %Inhibition (EGFR): 37.7%
Met Kinase % Inhibition (MET): 43.6%

Cc1cc(C)c(C=C2C(=O)Nc3ccc(S(=O)(=O)Nc4ccc(C(F)(F)F)cc4)cc32)[nH]1 [10721/E08]
Biochem EGFR %Inhibition (EGFR): 29.8%
Met Kinase % Inhibition (MET): 39.5%

CC(C)(C)c1cc(C=C2C(=O)Nc3ccc(S(=O)(=O)Nc4ccc(C(F)(F)F)cc4)cc32)ccc1O [10721/E09]
Biochem EGFR %Inhibition (EGFR): 42.5%
Met Kinase % Inhibition (MET): 0.7%

CC(C)(C)c1cc(C=C2C(=O)Nc3ccc(S(=O)(=O)Nc4ccc(C(F)(F)F)cc4)cc32)cc(Br)c1O [10721/E10]
Biochem EGFR %Inhibition (EGFR): 19.9%
Met Kinase % Inhibition (MET): 55.7%

CC(C)(C)c1cc(C=C2C(=O)Nc3ccc(S(=O)(=O)Nc4ccc(C(F)(F)F)cc4)cc32)cc(C(C)(C)C)c1O [10721/E11]
Biochem EGFR %Inhibition (EGFR): 32.1%
Met Kinase % Inhibition (MET): 31.3%

Cn1c(C=C2C(=O)Nc3ccc(S(=O)(=O)N4CCOCC4)cc32)nc2ccccc21 [10721/F02]
Biochem EGFR %Inhibition (EGFR): 11.0%
Met Kinase % Inhibition (MET): 27.8%

Cn1cc(Cl)c(C=C2C(=O)Nc3ccc(S(=O)(=O)N4CCOCC4)cc32)n1 [10721/F03]
Biochem EGFR %Inhibition (EGFR): 7.0%
Met Kinase % Inhibition (MET): 40.6%

Cc1cc(C=C2C(=O)Nc3ccc(S(=O)(=O)N4CCOCC4)cc32)sc1C [10721/F04]
Biochem EGFR %Inhibition (EGFR): 0.0%
Met Kinase % Inhibition (MET): 26.0%

O=C1Nc2ccc(S(=O)(=O)N3CCOCC3)cc2C1=Cc1cc2c([nH]1)CCCC2 [10721/F05]
Biochem EGFR %Inhibition (EGFR): 20.5%
Met Kinase % Inhibition (MET): 67.8%

O=C1Nc2ccc(S(=O)(=O)N3CCOCC3)cc2C1=Cc1cc([N+](=O)[O-])cc(CCl)c1O [10721/F06]
Biochem EGFR %Inhibition (EGFR): 21.7%
Met Kinase % Inhibition (MET): 80.3%

O=C1Nc2ccc(S(=O)(=O)N3CCOCC3)cc2C1=Cc1ccc(Cl)s1 [10721/F07]
Biochem EGFR %Inhibition (EGFR): 3.5%
Met Kinase % Inhibition (MET): 55.7%

Cc1cc(C)c(C=C2C(=O)Nc3ccc(S(=O)(=O)N4CCOCC4)cc32)[nH]1 [10721/F08]
Biochem EGFR %Inhibition (EGFR): 37.3%
Met Kinase % Inhibition (MET): 76.1%

CC(C)(C)c1cc(C=C2C(=O)Nc3ccc(S(=O)(=O)N4CCOCC4)cc32)ccc1O [10721/F09]
Biochem EGFR %Inhibition (EGFR): 7.0%
Met Kinase % Inhibition (MET): 52.5%

CC(C)(C)c1cc(C=C2C(=O)Nc3ccc(S(=O)(=O)N4CCOCC4)cc32)cc(Br)c1O [10721/F10]
Biochem EGFR %Inhibition (EGFR): 7.5%
Met Kinase % Inhibition (MET): 79.9%

CC(C)(C)c1cc(C=C2C(=O)Nc3ccc(S(=O)(=O)N4CCOCC4)cc32)cc(C(C)(C)C)c1O [10721/F11]
Biochem EGFR %Inhibition (EGFR): 95.9%
Met Kinase % Inhibition (MET): 78.2%

Cn1c(C=C2C(=O)Nc3ccc(CCCl)cc32)nc2ccccc21 [10721/G02]
Biochem EGFR %Inhibition (EGFR): 23.6%
Met Kinase % Inhibition (MET): 7.9%

Cn1cc(Cl)c(C=C2C(=O)Nc3ccc(CCCl)cc32)n1 [10721/G03]
Biochem EGFR %Inhibition (EGFR): 23.4%
Met Kinase % Inhibition (MET): 25.3%

Cc1cc(C=C2C(=O)Nc3ccc(CCCl)cc32)sc1C [10721/G04]
Biochem EGFR %Inhibition (EGFR): 64.6%
Met Kinase % Inhibition (MET): 90.3%

O=C1Nc2ccc(CCCl)cc2C1=Cc1cc2c([nH]1)CCCC2 [10721/G05]
Biochem EGFR %Inhibition (EGFR): 7.7%
Met Kinase % Inhibition (MET): 8.6%

O=C1Nc2ccc(CCCl)cc2C1=Cc1cc([N+](=O)[O-])cc(CCl)c1O [10721/G06]
Biochem EGFR %Inhibition (EGFR): 23.2%
Met Kinase % Inhibition (MET): 39.5%

O=C1Nc2ccc(CCCl)cc2C1=Cc1ccc(Cl)s1 [10721/G07]
Biochem EGFR %Inhibition (EGFR): 14.7%
Met Kinase % Inhibition (MET): 10.0%

Cc1cc(C)c(C=C2C(=O)Nc3ccc(CCCl)cc32)[nH]1 [10721/G08]
Biochem EGFR %Inhibition (EGFR): 12.8%
Met Kinase % Inhibition (MET): -2.4%

CC(C)(C)c1cc(C=C2C(=O)Nc3ccc(CCCl)cc32)ccc1O [10721/G09]
Biochem EGFR %Inhibition (EGFR): 14.9%
Met Kinase % Inhibition (MET): 5.1%

CC(C)(C)c1cc(C=C2C(=O)Nc3ccc(CCCl)cc32)cc(Br)c1O [10721/G10]
Biochem EGFR %Inhibition (EGFR): 2.1%
Met Kinase % Inhibition (MET): 12.0%

CC(C)(C)c1cc(C=C2C(=O)Nc3ccc(CCCl)cc32)cc(C(C)(C)C)c1O [10721/G11]
Biochem EGFR %Inhibition (EGFR): 0.4%
Met Kinase % Inhibition (MET): -0.0%

CC(C)(C)c1cc(C=C2C(=O)Nc3c(Br)cc(Br)cc32)cc([N+](=O)[O-])c1O [10722/A02]
Biochem EGFR %Inhibition (EGFR): 23.7%
PDGF Kinase %Inhibition (PDGF-R): 28.9%
Met Kinase % Inhibition (MET): 44.9%

O=C1Nc2c(Br)cc(Br)cc2C1=Cc1c(O)cc(O)cc1O [10722/A03]
Biochem EGFR %Inhibition (EGFR): 0.8%
PDGF Kinase %Inhibition (PDGF-R): 29.5%
Met Kinase % Inhibition (MET): 90.3%

O=C1Nc2c(Br)cc(Br)cc2C1=Cc1ccc([N+](=O)[O-])s1 [10722/A04]
Biochem EGFR %Inhibition (EGFR): 21.0%
PDGF Kinase %Inhibition (PDGF-R): -0.9%
Met Kinase % Inhibition (MET): 51.4%

O=C1Nc2c(Br)cc(Br)cc2C1=Cc1ccc(C(=O)O)cc1 [10722/A05]
Biochem EGFR %Inhibition (EGFR): 22.4%
PDGF Kinase %Inhibition (PDGF-R): 33.5%
Met Kinase % Inhibition (MET): 90.5%

O=C1Nc2c(Br)cc(Br)cc2C1=Cc1ccc(F)cc1F [10722/A06]
Biochem EGFR %Inhibition (EGFR): 28.4%
PDGF Kinase %Inhibition (PDGF-R): 19.8%
Met Kinase % Inhibition (MET): 71.6%

Cc1cc(C=C2C(=O)Nc3c(Br)cc(Br)cc32)cc(C)c1O [10722/A07]
Biochem EGFR %Inhibition (EGFR): 29.9%
PDGF Kinase %Inhibition (PDGF-R): 23.8%
Met Kinase % Inhibition (MET): 64.1%

CC(C)(C)c1cc(C=C2C(=O)Nc3c(Br)cc(Br)cc32)cc(Cl)c1O [10722/A08]
Biochem EGFR %Inhibition (EGFR): 23.9%
PDGF Kinase %Inhibition (PDGF-R): 15.2%
Met Kinase % Inhibition (MET): 70.5%

O=C1Nc2c(Br)cc(Br)cc2C1=Cc1csc([N+](=O)[O-])c1 [10722/A09]
Biochem EGFR %Inhibition (EGFR): 16.8%
PDGF Kinase %Inhibition (PDGF-R): 21.5%
Met Kinase % Inhibition (MET): 86.5%

CCCCN(CCCC)c1ccc(C=C2C(=O)Nc3c(Br)cc(Br)cc32)cc1 [10722/A10]
Biochem EGFR %Inhibition (EGFR): -4.2%
PDGF Kinase %Inhibition (PDGF-R): 15.2%
Met Kinase % Inhibition (MET): 79.0%

O=C1Nc2c(Br)cc(Br)cc2C1=Cc1ccc(C(F)(F)F)cc1 [10722/A11]
Biochem EGFR %Inhibition (EGFR): -0.1%
PDGF Kinase %Inhibition (PDGF-R): 21.5%
Met Kinase % Inhibition (MET): 68.6%

CC(C)(C)c1cc(C=C2C(=O)Nc3ccc(I)cc32)cc([N+](=O)[O-])c1O [10722/B02]
Biochem EGFR %Inhibition (EGFR): 16.3%
PDGF Kinase %Inhibition (PDGF-R): 28.9%
Met Kinase % Inhibition (MET): 44.3%

O=C1Nc2ccc(I)cc2C1=Cc1c(O)cc(O)cc1O [10722/B03]
Biochem EGFR %Inhibition (EGFR): 19.6%
PDGF Kinase %Inhibition (PDGF-R): 3.7%
Met Kinase % Inhibition (MET): 40.1%
